Like-named read-outs stand apart in the source and are kept apart here.
Assay: logP
Format: physicochemical

logP (acidic, read-out: logP acidic): 2.69
logP (neutral, read-out: logP neutr.): 6.31
logP (pH 2.3, pH 2.3, read-out: log P (pH2.3)): 2.14
SMILES: CCN(C)C=Nc1cc(C)c(Oc2ccc3c(c2)CCCC3)cc1C [Compound 13, N-Ethyl-N-methyl-N′-[4-(5,6,7,8-tetrahydro-2-naphthoxy)-2,5-dimethylphenyl]formamidine]

— patent publication US8080688B2, “3, 4-disubstituted phenoxyphenylamidines and use thereof as fungicides” (Bayer Cropscience AG, priority 2007, dated 2011)
